Assay: molar heat capacity at constant pressure; xn = mol fraction of the nth substance listed
Conditions: 101.3 kPa, Liquid, Small sample (50 mg) DSC

CNCCN(C)C [N,N,N'-trimethylethylenediamine] + O
molar heat capacity at constant pressure [J/K/mol]
Conditions | x1 = 0.1 | x1 = 0.3 | x1 = 0.5 | x1 = 0.7 | x1 = 0.9 | x1 = 1
303.2 K | 105.2 | 151 | 188.5 | 217.4 | 245.2 | 258.3
308.2 K | 105.5 | 152.4 | 190.1 | 219.1 | 246.8 | 260
313.2 K | 106.1 | 154 | 192.1 | 221.2 | 249.3 | 262.7
318.2 K | 106.5 | 155.6 | 193.9 | 223.1 | 251.7 | 265.3
323.2 K | 107.3 | 157.8 | 196.1 | 226 | 255.5 | 269.2
328.2 K | 107.6 | 159.5 | 198.2 | 228.5 | 258.7 | 272.7
333.2 K | 108.1 | 161.4 | 200.2 | 231 | 261.8 | 276
338.2 K | 108.5 | 162.7 | 201.9 | 233.3 | 264.4 | 278.9
343.2 K | 109 | 163.8 | 203.3 | 235.3 | 267.3 | 281.3
348.2 K | 109.4 | 164.8 | 204.4 | 237.5 | 270.2 | 283.4
353.2 K | 110.3 | 166.2 | 206.3 | 239.8 | 273.1 | 286.6

NCCN1CCNCC1 [N-(β-aminoethyl)piperazine)] + O
molar heat capacity at constant pressure [J/K/mol]
Conditions | x1 = 0.1 | x1 = 0.3 | x1 = 0.5 | x1 = 0.7 | x1 = 0.9 | x1 = 1
303.2 K | 109.7 | 157.3 | 202.1 | 242.8 | 278.3 | 289.7
308.2 K | 110.2 | 158.5 | 203.2 | 244.3 | 279.8 | 290.8
313.2 K | 110.7 | 160.3 | 204.8 | 246.3 | 281.6 | 293.1
318.2 K | 111 | 162.1 | 206.3 | 248.1 | 283.1 | 294.7
323.2 K | 111.4 | 164.3 | 208.5 | 250.6 | 285.2 | 296.9
328.2 K | 111.4 | 165.7 | 210 | 252.5 | 287 | 298.5
333.2 K | 111.6 | 167.3 | 211.8 | 253.5 | 289 | 300.7
338.2 K | 111.8 | 168.7 | 213.6 | 254.5 | 290.9 | 302.2
343.2 K | 112.4 | 170.1 | 215.2 | 255.9 | 292 | 303.3
348.2 K | 112.6 | 171.4 | 216.3 | 256.2 | 292.5 | 303.6
353.2 K | 112.9 | 173.1 | 217.6 | 257.3 | 293.7 | 304.6

Source: the NIST ThermoML archive (doi:10.1016/j.jct.2016.08.006)
